For this experiment, the system named is Chronic constriction injury (CCl), a model of neuropathic pain. Put plainly: In vivo assessment of analgesic effect against neuropathic pain (Bennett model, chronic constriction injury; tactile allodynia by von Frey filaments). The following applies: Rattus norvegicus, po, 1 h; male Sprague Dawley rats, CCI; 10 mg/kg orally; mechanical allodynia 60 minutes following administration; percentage of maximum possible effect from log g PWT; read-out: % MPE. How it is done: Animals were prepared for testing, by use of a surgical procedure that induces neuropathic pain in one paw. IACUC guidelines for rodent survival surgery were followed. All surgical procedures were conducted on a clean, uncluttered surgical station. The area was wiped with a 70% ethanol solution before and after use. All instruments were sterilized by either autoclave or chemical sterilant (such as 2% glutaraldehyde>10 hours). Surgeons wore sterile gloves (for the initial procedure), clean lab coat or scrubs, hairnet or cap, and a half-mask respirator (when not working under a hood). Surgeons thoroughly washed their hands prior to donning sterile gloves. Gloves were disinfected in-between animals by cleansing with povidone iodine, chlorhexidine or 70% alcohol for at least 30 seconds. If multiple surgeries were performed, the instruments were cleaned and sterilized between procedures with hot glass beads (>10 seconds). To prevent thermal or chemical burns, the instruments were cooled by rinsing in sterile saline before use. Male, Sprague Dawley® rats, 175-200 g were used for surgeries. To minimize post-operative dehydration/maintain blood volume during the surgery, warmed sterile saline or Lactate Ringers solution at 10-15 mL/kg was administered subcutaneously immediately before or after surgery. This facilitated better renal function and presumably anesthesia product excretion post surgery. For all surgical procedures, anesthesia was induced with 4-5% isoflurane. Anesthesia was maintained during surgery with 1-3% isoflurane. Following induction, the surgical site was carefully shaved and the exposed area was aseptically prepared with povidone-iodine scrub solution and 70% ethanol 2-3 times. Chronic constriction injury (CCl), a model of neuropathic pain, was produced by following the method of Bennett and Xie (Bennett, G, et al. Pain, 1988, 33, 87-107). After site sterilization and anesthetic procedures outline above were completed, a 1.5 cm incision was made at the mid-thigh level to expose the biceps femoris and gluteous superficialis (right side), which were then separated by blunt dissection. The common sciatic nerve was exposed, isolated, and loosely ligated by four 5-0 chromic gut ligatures with <1 mm spacing between each. The surgical site was closed in layers—muscle was closed with 6.0 absorbable sutures, and the skin closed with wound clips. Animals were allowed to recover on a warming plate and were returned to their home cages when fully ambulatory. Animals were not be used for testing until at least 10 days following surgery. To measure mechanical sensitivity, tactile allodynia was measured using calibrated von Frey filaments (Stoelting, Wood Dale, Ill.) as described by Chaplan et al. (Chaplan S., et al. J of Neuroscience Methods 1994, 53, 55-63). Filament strengths used were: 0.4, 0.6, 1.0, 2, 4, 6, 8, and 15 g. Rats were placed into inverted individual plastic containers (20×12.5×20 cm) on top of a suspended wire mesh grid, and acclimated to the test chambers for at least 20 minutes. Filaments were applied perpendicular to the mid-plantar paw surface with enough force to cause slight buckling and held in place for 6-8 seconds. Positive responses included an abrupt withdrawal of the paw from the stimulus or flinching behavior immediately following removal of the stimulus. The maximum force applied was 15 g. The 50% paw withdrawal threshold (PWT) was calculated in grams (g) using the up-down method of Dixon (Dixon W. Ann Rev Pharmacol Toxicol 1980, 20, 441-462). […] All compounds were orally administered in at a dose of 10 mg/kg in 10% dimethyl sulfoxide/polyethylene glycol at a volume of 2.0 mL/kg, and mechanical allodynia was determined 60 minutes following compound administration. […]

As to `O=S(=O)(c1cccc(C(F)(F)F)c1)N1CCN2C[C@H](Oc3cnc(C4CC4)cn3)C[C@H]2C1` [Example 21, (7R,8aS)-7-[(5-cyclopropylpyrazin-2-yl)oxy]-2-{[3-(trifluoromethyl)phenyl]-sulfonyl}octahydropyrrolo[1,2-a]pyrazine], the inhibition in vivo at 10 mg/kg is 43%.
Under `O=S(=O)(c1ccc(C(F)(F)F)cc1)N1CCN2C[C@H](Oc3cnc(C4CC4)cn3)C[C@H]2C1` [Example 25, (7R,8aS)-7-[(5-cyclopropylpyrazin-2-yl)oxy]-2-{[4-(trifluoromethyl)-phenyl]sulfonyl}octahydropyrrolo[1,2-a]pyrazine] stands 42%; under `O=S(=O)(c1cccc(C(F)(F)F)c1)N1CCN2C[C@H](Oc3ccc(C4CC4)nn3)C[C@H]2C1` [Example 44, (7R,8aS)-7-[(6-cyclopropylpyridazin-3-yl)oxy]-2-{[3-(trifluoromethyl)-phenyl]sulfonyl}octahydropyrrolo[1,2-a]pyrazine], 40%.
The result for `O=S(=O)(c1cccc(C(F)(F)F)c1)N1CCN2C[C@@H](Oc3cnc(C4CC4)cn3)C[C@H]2C1` [Example 49, (7S,8aS)-7-[(5-cyclopropylpyrazin-2-yl)oxy]-2-{[3-(trifluoromethyl)-phenyl]sulfonyl}octahydropyrrolo[1,2-a]pyrazine] reads 19%; that for `O=S(=O)(c1ccc(C(F)(F)F)cc1)N1CCN2C[C@@H](Oc3cnc(C4CC4)cn3)C[C@H]2C1` [Example 50, (7S,8aS)-7-[(5-cyclopropylpyrazin-2-yl)oxy]-2-{[4-(trifluoromethyl)phenyl]-sulfonyl}octahydropyrrolo[1,2-a]pyrazine], 25%.
Under `O=S(=O)(c1cc(F)cc(C(F)(F)F)c1)N1CCN2C[C@H](Oc3cnc(C4CC4)cn3)C[C@H]2C1` [Example 51, (7R,8aS)-7-[(5-cyclopropylpyrazin-2-yl)oxy]-2-{[3-fluoro-5-(trifluoromethyl)phenyl]sulfonyl}octahydropyrrolo[1,2-a]pyrazine] stands 32%; under `O=S(=O)(c1ccc(F)c(C(F)(F)F)c1)N1CCN2C[C@H](Oc3cnc(C4CC4)cn3)C[C@H]2C1` [Example 52, (7R,8aS)-7-[(5-cyclopropylpyrazin-2-yl)oxy]-2-{[4-fluoro-3-(trifluoromethyl)phenyl]sulfonyl}octahydropyrrolo[1,2-a]pyrazine], 38%; under `O=S(=O)(c1ccc(C(F)(F)F)cc1)N1CCN2C[C@@H](Oc3cnc(C4CC4)cn3)C[C@@H]2C1` [Example 54, (7S,8aR)-7-[(5-cyclopropylpyrazin-2-yl)oxy]-2-{[4-(trifluoromethyl)phenyl]-sulfonyl}octahydropyrrolo[1,2-a]pyrazine], 34%.
As for `O=S(=O)(c1ccc(F)cc1F)N1CCN2C[C@H](Oc3cnc(C4CC4)cn3)C[C@H]2C1` [Example 62, (7R,8aS)-7-[(5-cyclopropylpyrazin-2-yl)oxy]-2-[(2,4-difluorophenyl)-sulfonyl]octahydropyrrolo[1,2-a]pyrazine], the inhibition in vivo at 10 mg/kg came to 29%.
With `N#Cc1cc(C(F)(F)F)cc(S(=O)(=O)N2CCN3C[C@H](Oc4cnc(C5CC5)cn4)C[C@H]3C2)c1` [Example 64, 3-{[(7R,8aS)-7-[(5-cyclopropylpyrazin-2-yl)oxy]hexahydropyrrolo[1,2-a]-pyrazin-2(1H)-yl]sulfonyl}-5-(trifluoromethyl)benzonitrile], the inhibition in vivo at 10 mg/kg came out at 37%.
Under `O=S(=O)(c1ccc(C(F)(F)F)cn1)N1CCN2C[C@H](Oc3cnc(C4CC4)cn3)C[C@H]2C1` [Example 67, (7R,8aS)-7-[(5-cyclopropylpyrazin-2-yl)oxy]-2-{[5-(trifluoromethyl)pyridin-2-yl]sulfonyl}octahydropyrrolo[1,2-a]pyrazine] stands 5%; under `N#Cc1ccc(O[C@@H]2C[C@H]3CN(S(=O)(=O)c4cccc(C(F)(F)F)c4)CCN3C2)cn1` [Example 86, 5-{[(7R,8aS)-2-{[3-(trifluoromethyl)phenyl]sulfonyl}octahydropyrrolo[1,2-a]pyrazin-7-yl]oxy}pyridine-2-carbonitrile], 0%.

The record behind these values is US8648074B2, “Substituted octahydropyrrolo[1,2-a]pyrazine sulfonamides as calcium channel blockers” (AbbVie Inc., priority 2011, dated 2014).
